Results as given in patent publication US20250074920A1, “MACROCYCLIC COMPOUNDS AND USE AS KINASE INHIBITORS” (BLOSSOMHILL THERAPEUTICS, INC., priority 2022, published 2025).
pKd: −log10 of the molar value.

Key:
Assay in all cases: KINOMEscan kinase binding assay
[1] = system: ABL1(Q252H)-nonphosphorylated; details: at 1 μM
Experimental: (§1) Kinase binding assays were performed at Eurofins/DiscoveRx using the general KINOMEscan Protocol (Fabian, M. A. et al., “A small molecule-kinase interaction map for clinical kinase inhibitors,” Nat. Biotechnol. 2005, 23(3):329-36). For most assays, kinase-tagged T7 phage strains were prepared in an E. coli host derived from the BL21 strain. E. coli were grown to log-phase and infected with T7 phage and incubated with shaking at 32° C. until lysis. The lysates were centrifuged and filtered to remove cell debris. The remaining kinases were produced in HEK-293 cells and subsequently tagged with DNA for qPCR detection. Streptavidin-coated magnetic beads were treated with biotinylated small molecule ligands for 30 minutes at room temperature to generate affinity resins for kinase assays. The liganded beads were blocked with excess biotin and washed with blocking buffer (SeaBlock (Pierce), 1% BSA, 0.05% Tween 20, 1 mM DTT) to remove unbound ligand and to reduce nonspecific binding. Binding reactions were assembled by combining kinases, liganded affinity beads, and test compounds in 1× binding buffer (20% SeaBlock, 0.17×PBS, 0.05% Tween 20, 6 mM DTT). All reactions were performed in polystyrene 96-well plates in a final volume of 0.135 mL. The assay plates were incubated at room temperature with shaking for 1 hour and the affinity beads were washed with wash buffer (1×PBS, 0.05% Tween 20). The beads were then re-suspended in elution buffer (1×PBS, 0.05% Tween 20, 0.5 μM non-biotinylated affinity ligand) and incubated at room temperature with shaking for 30 minutes. The kinase concentration in the eluates was measured by qPCR. Results for compounds tested in this assay at a given concentration are reported as “% Ctrl”, where lower numbers indicate stronger binding in the matrix. % Ctrl was calculated as (test compound signal-positive control signal)/(negative control signal-positive control signal)×100. Dissociation constants (Kds) for test compound-kinase interactions were calculated by measuring the amount of kinase captured on the solid support as a function of the test compound concentration.

[2] = system: ABL1(T315I)-nonphosphorylated; details: at 1 μM
Experimental: as §1

ABL2 = details: at 1 μM
Experimental: as §1

ALK(C1156Y) = details: at 1 μM
Experimental: as §1

ALK(L1196M) = details: at 1 μM
Experimental: as §1

BLK = details: at 1 μM
Experimental: as §1

BRK = details: at 1 μM
Experimental: as §1

CSF1R = details: at 1 μM
Experimental: as §1

EGFR(G719C) = details: at 1 μM
Experimental: as §1

EGFR(L858R, T790M) = details: at 1 μM
Experimental: as §1

EGFR(L861Q) = details: at 1 μM
Experimental: as §1

EPHA3 = details: at 1 μM
Experimental: as §1

EPHA4 = details: at 1 μM
Experimental: as §1

EPHA8 = details: at 1 μM
Experimental: as §1

EPHB2 = details: at 1 μM
Experimental: as §1

ERBB3 = details: at 1 μM
Experimental: as §1

FAK = details: at 1 μM
Experimental: as §1

FGFR2 = details: at 1 μM
Experimental: as §1

FGFR3(G697C) = details: at 1 μM
Experimental: as §1

FLT3(N841I) = details: at 1 μM
Experimental: as §1

FLT3-autoinhibited = details: at 1 μM
Experimental: as §1

FRK = details: at 1 μM
Experimental: as §1

FYN = details: at 1 μM
Experimental: as §1

HCK = details: at 1 μM
Experimental: as §1

INSRR = details: at 1 μM
Experimental: as §1

INSR = details: at 1 μM
Experimental: as §1

[3] = system: JAK3(JH1domain-catalytic); details: for % Ctrl: JAK3(JH1domain-catalytic), at 1 μM; for pKd: read-out: JAK3(JH1 domain-catalytic) Kd
Experimental: as §1

KIT(L576P) = details: at 1 μM
Experimental: as §1

KIT-autoinhibited = details: at 1 μM
Experimental: as §1

LTK = details: at 1 μM
Experimental: as §1

LYN = details: at 1 μM
Experimental: as §1

MET = details: at 1 μM
Experimental: as §1

MST1R = details: at 1 μM
Experimental: as §1

PYK2 = details: at 1 μM
Experimental: as §1

RET(V804L) = details: at 1 μM
Experimental: as §1

RET(V804M) = details: at 1 μM
Experimental: as §1

ROS1 = details: at 1 μM
Experimental: as §1

TEC = details: at 1 μM
Experimental: as §1

TRKA = details: at 1 μM
Experimental: as §1

TXK = details: at 1 μM
Experimental: as §1

[4] = system: TYK2(JH1domain-catalytic); details: for % Ctrl: TYK2(JH1domain-catalytic), at 1 μM; for pKd: read-out: TYK2(JH1 domain-catalytic) Kd
Experimental: as §1

`Cc1cc2c([nH]1)/C=C1\C(=O)Nc3c(Cl)cc(cc31)-c1cn(C)nc1COC[C@@H](C)NC2=O` [Cpd. 3, [3a(4)Z,10R]-20-chloro-6,10,15-trimethyl-10,11,13,15-tetrahydro-2H-1,17-(ethanediylidene)pyrazolo[4,3-m]dipyrrolo[3,2-f:3′,4′-i][1,4]oxazacyclopentadecine-3,8(5H,9H)-dione] was tested, and the “% Ctrl” value [1] was 92%, the “% Ctrl” value [2] was 100% and the “% Ctrl” value (ABL2) was 97%. For the same compound, the “% Ctrl” value (ALK(C1156Y)) was 89%, the “% Ctrl” value (ALK(L1196M)) was 94% and the “% Ctrl” value (BLK) was 92%. The “% Ctrl” value (BRK) was 95%, the “% Ctrl” value (CSF1R) was 100% and the “% Ctrl” value (EGFR(G719C)) was 100%. The “% Ctrl” value (EGFR(L858R, T790M)) was 72%, the “% Ctrl” value (EGFR(L861Q)) was 98% and the “% Ctrl” value (EPHA3) was 75%. For the same compound, the “% Ctrl” value (EPHA4) was 92%, the “% Ctrl” value (EPHA8) was 90% and the “% Ctrl” value (EPHB2) was 99%. The “% Ctrl” value (ERBB3) was 74%, the “% Ctrl” value (FAK) was 100% and the “% Ctrl” value (FGFR2) was 90%. The “% Ctrl” value (FGFR3(G697C)) was 89%, the “% Ctrl” value (FLT3(N841I)) was 90% and the “% Ctrl” value (FLT3-autoinhibited) was 93%. For the same compound, the “% Ctrl” value (FRK) was 97%, the “% Ctrl” value (FYN) was 100% and the “% Ctrl” value (HCK) was 100%. The “% Ctrl” value (INSRR) was 99%, the “% Ctrl” value (INSR) was 78% and the “% Ctrl” value [3] was 70%. The pKd [3] was 5.11, the “% Ctrl” value (KIT(L576P)) was 100% and the “% Ctrl” value (KIT-autoinhibited) was 87%. For the same compound, the “% Ctrl” value (LTK) was 100%, the “% Ctrl” value (LYN) was 90% and the “% Ctrl” value (MET) was 100%. The “% Ctrl” value (MST1R) was 98%, the “% Ctrl” value (PYK2) was 94% and the “% Ctrl” value (RET(V804L)) was 98%. The “% Ctrl” value (RET(V804M)) was 100%, the “% Ctrl” value (ROS1) was 62% and the “% Ctrl” value (TEC) was 96%. For the same compound, the “% Ctrl” value (TRKA) was 61%, the “% Ctrl” value (TXK) was 91% and the “% Ctrl” value [4] was 71%. It also gave a pKd [4] of under 5.00.
In the case of `C[C@@H]1COCc2nn(C)cc2-c2cc(Cl)c3c(c2)/C(=C/c2[nH]ccc2C(=O)N1)C(=O)N3` [Cpd. 4, [3a(4)Z,10R]-20-chloro-10,15-dimethyl-10,11,13,15-tetrahydro-2H-1,17-(ethanediylidene)pyrazolo[4,3-m]dipyrrolo[3,2-f:3′,4′-i][1,4]oxazacyclopentadecine-3,8(5H,9H)-dione], the “% Ctrl” value [1] was 86%, the “% Ctrl” value [2] was 100% and the “% Ctrl” value (ABL2) was 97%. For the same compound, the “% Ctrl” value (ALK(C1156Y)) was 100%, the “% Ctrl” value (ALK(L1196M)) was 94% and the “% Ctrl” value (BLK) was 100%. For the same compound, the “% Ctrl” value (BRK) was 83%, the “% Ctrl” value (CSF1R) was 92% and the “% Ctrl” value (EGFR(G719C)) was 93%. The “% Ctrl” value (EGFR(L858R, T790M)) was 77%, the “% Ctrl” value (EGFR(L861Q)) was 89% and the “% Ctrl” value (EPHA3) was 83%. For the same compound, the “% Ctrl” value (EPHA4) was 92%, the “% Ctrl” value (EPHA8) was 82% and the “% Ctrl” value (EPHB2) was 96%. For the same compound, the “% Ctrl” value (ERBB3) was 76%, the “% Ctrl” value (FAK) was 96% and the “% Ctrl” value (FGFR2) was 99%. For the same compound, the “% Ctrl” value (FGFR3(G697C)) was 79%, the “% Ctrl” value (FLT3(N841I)) was 78% and the “% Ctrl” value (FLT3-autoinhibited) was 93%. The “% Ctrl” value (FRK) was 78%, the “% Ctrl” value (FYN) was 93% and the “% Ctrl” value (HCK) was 100%. The “% Ctrl” value (INSRR) was 91%, the “% Ctrl” value (INSR) was 81% and the “% Ctrl” value [3] was 12%. The pKd [3] was 7.23, the “% Ctrl” value (KIT(L576P)) was 100% and the “% Ctrl” value (KIT-autoinhibited) was 82%. For the same compound, the “% Ctrl” value (LTK) was 100%, the “% Ctrl” value (LYN) was 87% and the “% Ctrl” value (MET) was 98%. For the same compound, the “% Ctrl” value (MST1R) was 100%, the “% Ctrl” value (PYK2) was 92% and the “% Ctrl” value (RET(V804L)) was 95%. For the same compound, the “% Ctrl” value (RET(V804M)) was 90%, the “% Ctrl” value (ROS1) was 68% and the “% Ctrl” value (TEC) was 99%. For the same compound, the “% Ctrl” value (TRKA) was 59%, the “% Ctrl” value (TXK) was 78% and the “% Ctrl” value [4] was 48%. The pKd [4] was 5.82.
